Key:
Assay type in all cases: cell-based, human
[1] = system: SF-539; experiment: NCI 60 panel growth inhibition (SRB), CNS cancer; settings: SF-539, 10 μM
Method: (§1) Screening of cytotoxic activity against a panel of sixty human tumor cell lines The selected compounds by NCI were evaluated for their anticancer activity in a two- stage process. […] Then, the output from the single dose screen is reported as a mean graph. […] Assay protocol. […] For a typical screening experiment, cells are inoculated into 96 well microtiter plates in 100 µL at plating densities ranging from 5000 to 40,000 cells/well depending on the doubling time of individual cell lines. […] After 24 h, two plates of each cell line are fixed in situ with TCA, to represent a measurement of the cell population for each cell line at the time of drug addition (Tz). The experimental drugs are solubilized in dimethyl sulfoxide at 400-fold the desired final maximum test concentration and stored frozen prior to use. At the time of drug addition, an aliquot of frozen concentrate is thawed and diluted to twice the desired final maximum test concentration with complete medium containing 50 µg/mL gentamicin. Additional four, 10-fold or ½ log serial dilutions are made to provide a total of five drug concentrations plus control. […] For adherent cells, the assay is terminated by the addition of cold TCA. […] The supernatant is discarded, and the plates are washed five times with tap water and air dried. […] Using the seven absorbance measurements [time zero, (Tz), control growth, (C), and test growth in the presence of drug at the five concentration levels (Ti)], the percentage growth is calculated at each of the drug concentrations levels. Percentage growth inhibition is calculated as: [(Ti Tz)/(C–Tz)] x 100 for concentrations for which Ti>/=Tz and [(Ti-Tz)/Tz] x 100 for concentrations for which Ti < Tz. Three dose response parameters are calculated for each experimental agent. […] The drug concentration resulting in total growth inhibition (TGI) is calculated from Ti = Tz. […] Values are calculated for each of these three parameters if the level of activity is reached; however, if the effect is not reached or is exceeded, the value for that parameter is expressed as greater or less than the maximum or minimum concentration tested.

[2] = system: SF-268; experiment: NCI 60 panel growth inhibition (SRB), CNS cancer; settings: SF-268, 10 μM
Method: as §1

[3] = system: SNB-75; experiment: NCI 60 panel growth inhibition (SRB), CNS cancer; settings: SNB-75, 10 μM
Method: as §1

[4] = system: SF-295; experiment: NCI 60 panel growth inhibition (SRB), CNS cancer; settings: SF-295, 10 μM
Method: as §1

[5] = system: SNB-19; experiment: NCI 60 panel growth inhibition (SRB), CNS cancer; settings: SNB-19, 10 μM
Method: as §1

[6] = system: OVCAR-4; experiment: NCI 60 panel growth inhibition (SRB), ovarian cancer; settings: OVCAR-4, 10 μM
Method: as §1

[7] = system: IGROV1; experiment: as above; settings: IGROV1, 10 μM
Method: as §1

[8] = system: OVCAR-5; experiment: as above; settings: OVCAR-5, 10 μM
Method: as §1

[9] = system: OVCAR-3; experiment: as above; settings: OVCAR-3, 10 μM
Method: as §1

[10] = system: OVCAR-8; experiment: as above; settings: OVCAR-8, 10 μM
Method: as §1

[11] = system: NCI/ADR-RES; experiment: as above; settings: 10 μM
Method: as §1

[12] = system: NCI-H322M; experiment: NCI 60 panel growth inhibition (SRB), non-small cell lung cancer; settings: 10 μM
Method: as §1

[13] = system: NCI-H226; experiment: as above; settings: NCI-H226, 10 μM
Method: as §1

[14] = system: NCI-H23; experiment: as above; settings: NCI-H23, 10 μM
Method: as §1

[15] = system: NCI-H460; experiment: as above; settings: NCI-H460, 10 μM
Method: as §1

[16] = system: NCI-H522; experiment: as above; settings: NCI-H522, 10 μM
Method: as §1

[17] = system: A549/ATCC; experiment: as above; settings: 10 μM
Method: as §1

[18] = system: EKVX; experiment: as above; settings: 10 μM
Method: as §1

[19] = system: HOP-92; experiment: as above; settings: HOP-92, 10 μM
Method: as §1

[20] = system: KM12; experiment: NCI 60 panel growth inhibition (SRB), colon cancer; settings: KM12, 10 μM
Method: as §1

[21] = system: HCT-15; experiment: NCI 60 panel growth inhibition (SRB), colon cancer; settings: HCT-15, 10 μM
Method: as §1

[22] = system: HCC-2998; experiment: NCI 60 panel growth inhibition (SRB), colon cancer; settings: HCC-2998, 10 μM
Method: as §1

[23] = system: SW-620; experiment: NCI 60 panel growth inhibition (SRB), colon cancer; settings: SW-620, 10 μM
Method: as §1

[24] = system: HCT-116; experiment: NCI 60 panel growth inhibition (SRB), colon cancer; settings: HCT-116, 10 μM
Method: as §1

[25] = system: CCRF-CEM; experiment: NCI 60 panel growth inhibition (SRB), leukemia; settings: 10 μM
Method: as §1

[26] = system: RPMI-8226; experiment: NCI 60 panel growth inhibition (SRB), leukemia; settings: RPMI-8226, 10 μM
Method: as §1

[27] = system: SR; experiment: NCI 60 panel growth inhibition (SRB), leukemia; settings: 10 μM
Method: as §1

[28] = system: HL-60(TB); experiment: NCI 60 panel growth inhibition (SRB), leukemia; settings: HL-60(TB), 10 μM
Method: as §1

[29] = system: MOLT-4; experiment: NCI 60 panel growth inhibition (SRB), leukemia; settings: MOLT-4, 10 μM
Method: as §1

[30] = system: K-562; experiment: NCI 60 panel growth inhibition (SRB), leukemia; settings: K-562, 10 μM
Method: as §1

[31] = system: NCI 60 cancer cell line panel; experiment: NCI 60 panel growth inhibition (SRB), whole panel; settings: mean over NCI 60 panel, 10 μM
Method: as §1

In the case of `COc1ccc(-c2nc3ccccc3s2)cc1OCC(=O)NN=C1C(=O)Nc2ccccc21` [Compound 9m, 2-(5-(Benzo[d]thiazol-2-yl)-2-methoxyphenoxy)-N′-(2-oxoindolin-3-ylidene) acetohydrazide], the GI% [1] is reported as 10.76%, the GI% [2] is reported as “– (GI% < 5%)” and the GI% [3] is reported as “– (GI% < 5%)”. For the same compound, the GI% [4] was “– (GI% < 5%)”, the GI% [5] was “– (GI% < 5%)” and the GI% [6] was 16.50%. The GI% [7] was “– (GI% < 5%)”, the GI% [8] was “– (GI% < 5%)” and the GI% [9] was “– (GI% < 5%)”. For the same compound, the GI% [10] was 20.84%, the GI% [11] was 28.96% and the GI% [12] was “– (GI% < 5%)”. For the same compound, the GI% [13] was “– (GI% < 5%)”, the GI% [14] was 14.06% and the GI% [15] was 17.38%. For the same compound, the GI% [16] was 7.23%, the GI% [17] was “– (GI% < 5%)” and the GI% [18] was “– (GI% < 5%)”. The GI% [19] was “– (GI% < 5%)”, the GI% [20] was “– (GI% < 5%)” and the GI% [21] was 10.77%. For the same compound, the GI% [22] was “– (GI% < 5%)”, the GI% [23] was 29.93% and the GI% [24] was 41.54%. The GI% [25] was 40.05%, the GI% [26] was 25.46% and the GI% [27] was 12.20%. The GI% [28] was “– (GI% < 5%)”, the GI% [29] was 23.70% and the GI% [30] was 11.23%. For the same compound, the “Mean GI%” value [31] was 6.03%.
With `COc1ccc(-c2nc3ccccc3s2)cc1OCC(=O)NN=C1C(=O)Nc2ccc([N+](=O)[O-])cc21` [Compound 9p, 2-(5-(Benzo[d]thiazol-2-yl)-2-methoxyphenoxy)-N′-(5-nitro-2-oxoindolin-3-ylidene)acetohydrazide] the GI% [1] was 65.68%, the GI% [2] was 53.94% and the GI% [3] was 120.44%. For the same compound, the GI% [4] was 89.39%, the GI% [5] was 86.59% and the GI% [6] was 13.06%. The GI% [7] was 41.60%, the GI% [8] was “– (GI% < 5%)” and the GI% [9] was “– (GI% < 5%)”. The GI% [10] was 38.18%, the GI% [11] was 19.93% and the GI% [12] was 6.14%. For the same compound, the GI% [13] was 67.22%, the GI% [14] was 47.90% and the GI% [15] was “– (GI% < 5%)”. For the same compound, the GI% [16] was 42.45%, the GI% [17] was 7.06% and the GI% [18] was 9.22%. For the same compound, the GI% [19] was 99.07%, the GI% [20] was “– (GI% < 5%)” and the GI% [21] was “– (GI% < 5%)”. For the same compound, the GI% [22] was “– (GI% < 5%)”, the GI% [23] was “– (GI% < 5%)” and the GI% [24] was 47.25%. For the same compound, the GI% [25] was 9.28%, the GI% [26] was “– (GI% < 5%)” and the GI% [27] was “– (GI% < 5%)”. The GI% [28] was “– (GI% < 5%)”, the GI% [29] was “– (GI% < 5%)” and the GI% [30] was “– (GI% < 5%)”. For the same compound, the “Mean GI%” value [31] was 30.34%.
`COc1ccc(-c2nc3ccccc3s2)cc1OCC(=O)NN=C1C(=O)Nc2ccc(Cl)cc21` [Compound 9q, 2-(5-(Benzo[d]thiazol-2-yl)-2-methoxyphenoxy)-N′-(5-chloro-2-oxoindolin-3-ylidene)acetohydrazide] was tested, and the GI% [1] was 34.10%, the GI% [2] was 27.89% and the GI% [3] was 15.62%. It also gave a GI% [4] of 23.77%, a GI% [5] of 63.00% and a GI% [6] of 25.24%. For the same compound, the GI% [7] was 16.12%, the GI% [8] was “– (GI% < 5%)” and the GI% [9] was 31.89%. The GI% [10] was 59.73%, the GI% [11] was 47.55% and the GI% [12] was “– (GI% < 5%)”. The GI% [13] was 24.77%, the GI% [14] was 42.70% and the GI% [15] was 44.39%. For the same compound, the GI% [16] was 21.77%, the GI% [17] was 20.18% and the GI% [18] was 25.37%. For the same compound, the GI% [19] was 52.70%, the GI% [20] was 17.57% and the GI% [21] was 36.40%. For the same compound, the GI% [22] was “– (GI% < 5%)”, the GI% [23] was 51.82% and the GI% [24] was 72.84%. The GI% [25] was 81.35%, the GI% [26] was 46.48% and the GI% [27] was 18.57%. For the same compound, the GI% [28] was “– (GI% < 5%)”, the GI% [29] was 71.36% and the GI% [30] was 50.00%. The “Mean GI%” value [31] was 31.16%.
